These results are taken from article PMC8004929, “Whole-Body Pharmacokinetics and Physiologically Based Pharmacokinetic Model for Monomethyl Auristatin E (MMAE)” (Journal of Clinical Medicine, 2021).

Data set [1] can be described thus: PBPK model fitting and parameter estimation for MMAE. To be noted: PBPK model estimate (CV%), mice, 0.1 mg/kg i.v. An excerpt: The PBPK model included 16 tissues and a tumor compartment, and all of them were connected via blood flow and arranged anatomically. The tissue compartments included blood, lung, heart, kidney, muscle, skin, liver, brain, adipose, thymus, bone, small intestine, large intestine, spleen, pancreas, and other (i.e., carcass). All the other tissues, except those mentioned, were lumped into the ‘other’ compartment. The arterial blood to each organ was delivered by the efferent blood supplied from the lung, which perfused to each organ and then converged into the blood compartment, which represents the venous pool. Venous blood returned from the small intestine, large intestine, spleen, and pancreas were delivered to the liver. For the intestines, spleen, and pancreas, blood was delivered to the liver via the hepatic portal vein and mixed with liver artery blood after leaving the tissues. The delivery of the blood from the blood compartment to the lung completed the circulation of the flow. Based on in vitro, preclinical, and clinical data, the elimination of MMAE was assumed to be predominantly through the CYP3A4/5-mediated metabolic pathway and biliary/fecal excretion. Limited renal excretion (<10%) of MMAE has been reported. Therefore, we assumed that MMAE was eliminated solely via hepatic clearance (CL) from the liver interstitial space.
Each tissue compartment was further divided into the vascular, endothelial cell, interstitial, and cellular sub-compartments, and vascular space was divided into plasma and blood cells, as shown in Figure 1b. We aimed to make the sub-compartment division the same as our previously published platform antibody PBPK model, and thus, one can easily connect MMAE and an antibody PBPK model to build an ADC PBPK model. The rapid distribution of MMAE between plasma, endothelial cells, and interstitial space was assumed, and thus, the distribution rate between these compartments was set as a value 1000 times higher than the value of blood flow in each tissue. […] The partitioning of MMAE to the blood cells or cellular space was characterized using the KP values. The calculated KP values were adjusted for the ratios of cellular space volume to total tissue volume by dividing KP values with the ratio in each tissue. […] Only free MMAE was assumed to diffuse through the cellular membrane, and thus, the fraction of unbound drug in blood cells or tissue cellular space ( fu,t ) was calculated using Equation (2). (2) fu,t=fu,p/KP,i,
Equations (3) and (4) describe blood cell and plasma concentrations of MMAE, respectively. Equations that described MMAE concentration in the liver (Equations (5)–(9)), lung (Equations (10)–(14)), a typical tissue (Equations (15)–(19)), and tumor (Equations (20)–(23)) are provided below. In these equations, Qplasmai and QBClung are plasma flow and blood cell flow to the tissue i. Vplasma and VBC are volumes of central plasma and blood cell compartments. Vplasmai , VBCi , Vendoi , VISi , and Vcellulari are volumes of vascular, blood cell, endosomal, interstitial, and cellular compartments for tissue i. Cplasma and CBC are MMAE concentration in systemic plasma and blood cell compartments. Cplasmai , CBCi , Cendoi , CISi , and Ccellulari are MMAE concentration in vascular, blood cell, endosomal, interstitial, and cellular compartments of tissue i. PSBC is the permeability coefficient for the blood cell sub-compartment.
Physiological parameters for mice were obtained from our previously published PBPK model. Radius of the tumor blood capillary ( Rcap ), average distance between two capillaries ( Rkrough ), tumor void volume for MMAE ( ε ), P, D, and efflux rate of MMAE from the cells ( kout ) were obtained from the literature. […]

The subject of data set [2] is CYP3A. Conditions: in vivo and in vitro studies; cited from earlier work. An excerpt: The PBPK model of MMAE presented here can further be used to assess drug–drug interactions of MMAE containing ADCs. In vivo and in vitro studies indicate that MMAE is a substrate of CYP3A and P-glycoprotein [34]. As such, the polymorphism of CYP3A and P-glycoprotein may affect the PK of MMAE, and consequently the efficacy and toxicity of MMAE-conjugated ADCs. As such, the MMAE PBPK model can serve as a tool to explore drug interactions of ADCs.

For data set [3] the following is noted: mice, assumed from reported plasma protein binding; cited from earlier work. From the text:
Table 1 A glossary of literature-derived and estimated parameters used for the MMAE PBPK model. | column: Value || Each tissue compartment was further divided into the vascular, endothelial cell, interstitial, and cellular sub-compartments, and vascular space was divided into plasma and blood cells, as shown in Figure 1b. We aimed to make the sub-compartment division the same as our previously published platform antibody PBPK model, and thus, one can easily connect MMAE and an antibody PBPK model to build an ADC PBPK model. The rapid distribution of MMAE between plasma, endothelial cells, and interstitial space was assumed, and thus, the distribution rate between these compartments was set as a valu ... || Plasma protein binding plays a vital role in tissue distribution of small molecule drugs. […] Based on the reported mice data, fu,p was assumed to be 0.2, and it was used as a concentration-independent parameter in the PBPK model. Of note, species-dependence of fraction unbound should be considered when further scaling up the current MMAE PBPK model to different species. Based on free hormone hypothesis, it was assumed that ...

For data set [4] the following is noted: cited from earlier work. The method, then: There are some limitations of our study. First, only one dose level of MMAE was used to build the PBPK model. However, the current 0.1 mg/kg MMAE dose can be high enough to saturate the target, and thus, linear PK can be assumed. […] As more data at lower dose levels become available, the PBPK model can be further refined to elaborate the MMAE–tubulin interaction. Second, the PK profile of free M ...

For data set [5], the system named is P-glycoprotein. To be noted: cited from earlier work. From the text: Concentration data were not obtained for gastrointestinal tracts and thymus, and thus, an assumption was made when calculating KP values for these tissues based on the result of a quantitative whole-body autoradiography study of trastuzumab-vc-MMAE in rats. The study observed persistent MMAE radioactivity in tissues with rapidly dividing cells such as GI epithelia, bone marrow, spleen, and thymus. Accordingly, apparent KP in GI tracts and thymus were assumed to be the same as in spleen, and they were adjusted for the fractional cellular volume of each tissue. KP values were >1 in all tis ... || The PBPK model of MMAE presented here can further be used to assess drug–drug interactions of MMAE containing ADCs. In vivo and in vitro studies indicate that MMAE is a substrate of CYP3A and P-glycoprotein [34]. As such, the polymorphism of CYP3A and P-glycoprotein may affect the PK of MMAE, and consequently the efficacy and toxicity of MMAE-conjugated ADCs. As such, the MMAE PBPK model can serve as a tool to explore drug interactions of ADCs.

Structures are written as SMILES. Square brackets hold non-standard residues; d marks the D form. Peptide text beside a SMILES is read from it. * marks the point of attachment. Dolaproine = CO[C@@H]([C@@H]1CCCN1)[C@@H](C)C(=O)O; Dil = CC[C@H](C)[C@H](NC)[C@@H](CC(=O)O)OC; X1 = C[C@@H](N*)[C@@H](O)c1ccccc1; NMeV = CN[C@H](C(=O)O)C(C)C Some results are limits rather than exact numbers.

In the case of `CC[C@H](C)[C@@H]([C@@H](CC(=O)N1CCC[C@H]1[C@H](OC)[C@@H](C)C(=O)N[C@H](C)[C@@H](O)c1ccccc1)OC)N(C)C(=O)[C@@H](NC(=O)[C@@H](NC)C(C)C)C(C)C` [MMAE, Monomethyl auristatin E] (H-[NMeV]V[Dil][Dolaproine]-X1), the “CLint (liver intrinsic clearance)” value in data set [1] is 137 (8.92) mL/h. In addition, in data set [1] (blood cells), the “PSblood (permeability-surface area coefficient)” value is 0.105 (12.6) mL/h. Besides, the “PSbone (permeability-surface area coefficient)” value in data set [1] (bone) is listed as 0.568 (20.9) mL/h. Besides, the “PSbrain (permeability-surface area coefficient)” value in data set [1] (brain) was 0.00825 (40.4) mL/h. Further, the “PSfat (permeability-surface area coefficient)” value in data set [1] (fat) is recorded as 0.588 (23.5) mL/h. The “PSheart (permeability-surface area coefficient)” value in data set [1] (heart) is on record as 1.47 (17.1) mL/h. Also, the “PSkidney (permeability-surface area coefficient)” value in data set [1] (kidney) was 14.2 (20.2) mL/h. The “PSliver (permeability-surface area coefficient)” value in data set [1] (liver) is 49.2 (48.4) mL/h. For the same compound, in data set [1] (lung), the “PSlung (permeability-surface area coefficient)” value is given as 2.47 (13.2) mL/h. Moreover, in data set [1] (muscle), the “PSmuscle (permeability-surface area coefficient)” value was 3.16 (21.1) mL/h. Further, in data set [1] (pancreas), the “PSpancreas (permeability-surface area coefficient)” value was 0.0657 (18.7) mL/h. Moreover, in data set [1] (skin), the “PSskin (permeability-surface area coefficient)” value is recorded as 0.681 (30.6) mL/h. Besides, the “PSspleen (permeability-surface area coefficient)” value in data set [1] (spleen) is recorded as 0.457 (18.5) mL/h. Moreover, the “substrate of CYP3A” value in data set [2] is recorded as “substrate”. Besides, the “fu,p, fraction unbound in plasma” value in data set [3] is 0.8. Besides, in data set [4] (rats, single dose), the “dose that induced mortality” value is greater than 0.116 mg/kg. The “single-dose no-observed-adverse-effect level (NOAEL)” value in data set [4] (rats) was 0.01 mg/kg. Also, the “contribution of free MMAE to tissue total MMAE exposure following ADC administration” value in data set [4] (ref in-house data) is recorded as less than 20%. Further, in data set [5], the “substrate of P-glycoprotein” value was “substrate”.
